As a reminder, the Ki is a dissociation constant, usually derived from enzyme kinetics or from competition with a known ligand. A low value points to a stronger hold on the target.

The values that follow come from ChEMBL document CHEMBL2057184, “Essential structure of opioid κ receptor agonist nalfurafine for binding to the κ receptor 2: synthesis of decahydro(iminoethano)phenanthrene derivatives and their pharmacologies” (Bioorg Med Chem Lett, 2012).

Assay [1] can be described thus: Selectivity ratio of Ki for delta opioid receptor in mouse cerebellum to Ki for kappa opioid receptor in guinea pig cerebellum. The format is tissue-based.
Assay [2] addresses Delta-type opioid receptor (Mus musculus, UniProt P32300). Briefly: Displacement of [3H]DPDPE from delta opioid receptor in mouse cerebellum. In general terms: Displacement assays read how much labelled ligand stays bound in the presence of the test substance.
The target in another assay is Mu-type opioid receptor (Mus musculus, UniProt P42866). Briefly: Displacement of [3H]DAMGO from mu opioid receptor in mouse cerebellum.
Chain of Mu-type opioid receptor (P42866 whole entry): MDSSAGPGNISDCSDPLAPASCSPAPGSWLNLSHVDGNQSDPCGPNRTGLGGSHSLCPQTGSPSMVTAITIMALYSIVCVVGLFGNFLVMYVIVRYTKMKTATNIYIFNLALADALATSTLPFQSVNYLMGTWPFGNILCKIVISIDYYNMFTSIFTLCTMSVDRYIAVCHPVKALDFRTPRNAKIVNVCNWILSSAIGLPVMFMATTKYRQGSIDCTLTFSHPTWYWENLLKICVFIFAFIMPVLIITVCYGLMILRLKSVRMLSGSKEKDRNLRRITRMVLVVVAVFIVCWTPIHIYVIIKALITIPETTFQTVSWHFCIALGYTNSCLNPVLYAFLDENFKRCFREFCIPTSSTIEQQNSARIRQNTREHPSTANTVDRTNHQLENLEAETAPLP
The target of assay [3] is Kappa-type opioid receptor (Cavia porcellus, UniProt P41144). Briefly: Displacement of [3H]U-69,593 from kappa opioid receptor in guinea pig cerebellum.
Chain of Kappa-type opioid receptor (P41144 whole entry): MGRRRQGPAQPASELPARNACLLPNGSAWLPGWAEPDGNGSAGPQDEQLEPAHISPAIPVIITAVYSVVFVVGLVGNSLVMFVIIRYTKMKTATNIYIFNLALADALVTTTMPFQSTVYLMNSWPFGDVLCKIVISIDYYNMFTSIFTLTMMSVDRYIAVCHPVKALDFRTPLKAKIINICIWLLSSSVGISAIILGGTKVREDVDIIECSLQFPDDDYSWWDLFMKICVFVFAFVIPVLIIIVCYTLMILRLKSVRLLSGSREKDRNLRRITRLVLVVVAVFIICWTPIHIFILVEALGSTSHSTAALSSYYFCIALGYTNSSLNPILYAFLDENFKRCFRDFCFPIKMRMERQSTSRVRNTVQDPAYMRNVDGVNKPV
A short description of assay [4]: Selectivity ratio of Ki for mu opioid receptor in mouse cerebellum to Ki for kappa opioid receptor in guinea pig cerebellum. The class given is tissue-based.

Molecules are shown by their SMILES.

Chain of Delta-type opioid receptor (P32300 whole entry): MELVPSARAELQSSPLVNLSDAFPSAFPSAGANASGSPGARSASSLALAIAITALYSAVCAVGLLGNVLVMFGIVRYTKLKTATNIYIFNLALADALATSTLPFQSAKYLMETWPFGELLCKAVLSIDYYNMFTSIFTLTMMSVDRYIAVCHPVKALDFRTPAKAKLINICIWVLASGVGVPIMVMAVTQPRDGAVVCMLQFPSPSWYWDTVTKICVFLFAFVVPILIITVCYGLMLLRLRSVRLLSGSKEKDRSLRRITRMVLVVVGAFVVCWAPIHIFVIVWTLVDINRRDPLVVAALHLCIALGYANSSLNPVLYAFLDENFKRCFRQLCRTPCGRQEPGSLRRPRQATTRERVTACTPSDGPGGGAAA

With `CN(C(=O)/C=C/c1ccoc1)[C@@H]1CC[C@@]2(O)[C@H]3Cc4ccc(O)cc4[C@@]2(CCN3CC2CC2)C1`, the Ratio Ki in assay [1] came out at 11.8; in assay [4], 2.42. Moreover, the Ki in assay [2] came to 2.09 nM; on Mu-type opioid receptor it was 0.43 nM; in assay [3], 0.18 nM.

With `CN(C(=O)/C=C/c1ccoc1)[C@@H]1CC[C@H]2[C@H]3Cc4ccc(O)c5c4[C@@]2(CCN3CC2CC2)[C@H]1O5`, the figures for the Ratio Ki in assay [1] and in assay [4] were 25.3 and 1.47, respectively. Besides, the Ki in assay [2] is 8.82 nM; at Mu-type opioid receptor it was 0.51 nM; in assay [3], 0.35 nM.

On to `O=C1CC[C@@]2(O)[C@H]3CC4=C(CCCC4)[C@@]2(CCN3CC2CC2)C1`, for which the results for the Ratio Ki in assay [1] and in assay [4] were 1.19 and 0.5, respectively. Besides, the results for the inhibition constant Ki (in assay [2]; on Mu-type opioid receptor; in assay [3]) were 939 nM, 391 nM and 787 nM, respectively.

For the compound `CN[C@@H]1CC[C@@]2(O)[C@H]3CC4=C(CCCC4)[C@@]2(CCN3CC2CC2)C1`, the Ki was greater than 1000 nM in assay [2], greater than 1000 nM at Mu-type opioid receptor and 352 nM in assay [3].

As for `CN(C(=O)/C=C/c1ccoc1)[C@@H]1CC[C@H]2[C@H]3CC4=C(CCCC4)[C@@]2(CCN3CC2CC2)C1`, the Ratio Ki is 16.1 in assay [1] and 1.94 in assay [4]. Besides, the results for the Ki (in assay [2]; at Mu-type opioid receptor; in assay [3]) were 204 nM, 24.6 nM and 12.7 nM, respectively.

Regarding `CN(C(=O)/C=C/c1ccoc1)[C@@H]1CC[C@@]2(O)[C@H]3CC4=C(CCCC4)[C@@]2(CCN3CC2CC2)C1`, the Ratio Ki was determined as 54.5 in assay [1] and 14.7 in assay [4]. Further, the results for the Ki (in assay [2]; on Mu-type opioid receptor; in assay [3]) were 308 nM, 83.2 nM and 5.64 nM, respectively.

`CN(C(=O)/C=C/c1ccoc1)[C@@H]1CC[C@H]2CN(CC3CC3)CC[C@@H]2C1`: the Ki in assay [2] was greater than 100000 nM; on Mu-type opioid receptor, greater than 100000 nM; in assay [3], 19100 nM.

On to `CN(C(=O)/C=C/c1ccoc1)[C@@H]1CC[C@@]2(O)[C@H]3Cc4cccc5c4[C@@]2(CCN3CC2CC2)[C@H]1O5`, for which the results for the inhibitory constant (Ki) (in assay [2]; on Mu-type opioid receptor; in assay [3]) were greater than 1000 nM, 169 nM and 2.82 nM, respectively. Besides, the Ratio Ki in assay [4] worked out at 59.8.
